Assay results published in patent US20250127787A1, “METHODS FOR TREATING PERIPHERAL NEUROPATHY” (University of Pittsburgh - Of the Commonwealth System of …, priority 2021, published 2025).
“Also recorded” adds a separate entry of the source.

Test system: protein carbonylation
Assay: Protein carbonylation in PAC-CIPN rat epidermis
Type: in vivo
Settings: 8-AG 5 mg/kg/day in drinking water
Procedure: Animals: This study employed female Harlan Sprague Dawley (HSD) rats (3-4 mo; Envigo, Indianapolis, IN) and were divided into the following groups: 1) Control, 2) Cyclophosphamide (CYP, 75 mg/kg i.p. in saline vehicle; administered on days 0, 3 and 6 until sacrifice on day 8); 4) Paclitaxel (2 mg/kg i.p., 2 mg/kg i.p. in saline from a stock solution of 50/50 CremophorEL/ethanol); administered on days 0, 2, 4 and 6 until sacrifice on day 8; 4) 8-aminoguanine (8-AG; 5 mg/kg/day in drinking water; beginning 2 weeks prior to either CYP or PAC and continuing until sacrifice (day 8)). The dose of 8-AG was based on the experiments described above. […] All tissues (spinal cord and hindpaw epidermis) were removed from isoflurane anesthetized rats and the tissue was used for various experimental approaches as described below. At the end of tissue removal, animals were sacrificed by thoracotomy. […]

Nc1nc2[nH]c(N)nc2c(=O)[nH]1 [8-AG, 8-Aminoguanine]
effect on PAC-induced protein carbonylation: restored values to that of a control state; also recorded: significantly reduced
